Laboratory results taken from patent publication US20060148832A1, “Use of 2-amino-2h-quinazoline derivatives for producing therapeutic agents” (priority 2003, published 2006).

Experiments:
[1] = Cyclization of the anagrelide prodrug to anagrelide in aqueous medium as a function of pH; format: physicochemical; details: 37° C., after one hour
Text: The 2-amino-2H-quinazoline derivatives according to the invention can be cyclized to the anagrelide in aqueous medium as a function of the pH without addition of other adjuvants or boiling under reflux for hours. […] A cyclization of the compound with the general chemical formula I in strongly acidic pH range, as prevails, for example, in the stomach of mammals, has only been detected up to a certain small percentage.
(§1) For the cyclization, 0.3 mmol of the anagrelide prodrug methyl-(2-amino-5,6-dichloro-2H-quinazolin-3-yl) acetate hydrochloride (analysis: UV-Maxima 217,262 nm; MW 324.59; mp>250° C.), corresponding to the general formula I, wherein R1 indicates an alkyl group with one carbon atom, R2 and R3 each indicate a hydrogen atom, and R4 and R5 each indicate a chlorine atom, was added to 10 ml of an aqueous hydrochloric acid solution (0.1 M HCl), at 37° C. with slight stirring. After one hour, 9.6% of the prodrug was converted to anagrelide. [drawing 2]
as §1, with “(MW 324.59)” for “(analysis: UV-Maxima 217,262 nm; MW 324.59; mp>250° C.),”, “pH-neutral water,” for “an aqueous hydrochloric acid solution (0.1 M HCl),”, “58%” for “9.6%”, “anagrelide.” for “anagrelide. [drawing 2]”
as §1, with “hydrochloride” for “hydrochloride (analysis: UV-Maxima 217,262 nm; MW 324.59; mp>250° C.),”, “basic” for “hydrochloric acid”, “NaOH),” for “HCl),”, “100%” for “9.6%”, “anagrelide.” for “anagrelide. [drawing 2]”
(§2) For the cyclization, 0.3 mmol of the anagrelide prodrug ethyl-(2-amino-5,6-dichloro-2H-quinazolin-3-yl) acetate hydrochloride hemihydrate, corresponding to the general formula I, wherein R1 indicates an alkyl group with two carbon atoms, R2 and R3 each indicate a hydrogen atom, and R4 and R5 each indicate a chlorine atom, was added to 10 ml of an aqueous basic solution (15 g of sodium hydrogen carbonate in 1 liter of water), at 37° C. with slight stirring. This basic solution was selected because it corresponds to a common test system for simulation of the milieu of the intestinal juice (pH between 8 and 10). After one hour, 100% of the prodrug was converted to anagrelide.
as §2, with “methyl-(2-amino-5,6-dichloro-2H-quinazolin-3-yl)” for “ethyl-(2-amino-5,6-dichloro-2H-quinazolin-3-yl)”, “one” for “two”, “atom,” for “atoms,”
as §2, with “hydrobromide (analysis: UV maxima 204, 216, 262 nm; mp 291-293,” for “hydrochloride hemihydrate,”

[2] = anagrelide base; cited from earlier work
thrombocytes = details: dose of 3 mg/day, after one week; cited from earlier work
blood platelets = details: mentioned in U.S. Pat. No. 4,146,718; cited from earlier work
[3] = 0.3 mmol in 10 ml aqueous basic solution (15 g sodium hydrogen carbonate in 1 liter water; simulated intestinal juice, pH between 8 and 10)

Compound: Ethyl-(2-amino-5,6-dichloro-2H-quinazolin-3-yl) acetate hydrochloride hemihydrate
- prodrug converted to anagrelide [1, 3]: 100%

Compound: O=C1CN2Cc3c(ccc(Cl)c3Cl)N=C2N1 [anagrelide, 6,7-dichloro-1,5-dihydroimidazo-[2,1-b]-quinazolin-2-[3H]-one]
- solubility in water [2]: difficultly soluble in water
- decrease in thrombocytes (thrombocytes): approximately 50%

Compound: COC(=O)CN1C=c2c(Cl)c(Cl)ccc2=NC1N.Cl (stereo not drawn) [Methyl-(2-amino-5,6-dichloro-2H-quinazolin-3-yl) acetate hydrochloride]
- prodrug converted to anagrelide ([1]; 0.3 mmol in 10 ml aqueous basic solution (0.1 M NaOH)): 100%
- prodrug converted to anagrelide ([1]; 0.3 mmol in 10 ml aqueous hydrochloric acid solution (0.1 M HCl)): 9.6%
- prodrug converted to anagrelide ([1]; 0.3 mmol in 10 ml pH-neutral water): 58%

Compound: Br.CCOC(=O)CN1Cc2c(ccc(Cl)c2Cl)N=C1N [Ethyl-(2-amino-5,6-dichloro-2H-quinazolin-3-yl) acetate hydrobromide]
- prodrug converted to anagrelide [1, 3]: 100%
- effect on blood platelets (blood platelets): anti-aggregative effect on blood platelets

Compound: Methyl-(2-amino-5,6-dichloro-2H-quinazolin-3-yl) acetate hydrochloride hemihydrate
- prodrug converted to anagrelide [1, 3]: 100%
